Earlier results in patent US20260007782A1, “PREPARATION METHOD FOR LIQUID COMPOSITION COMPRISING COMPOUND I AND USE IN MYOCARDIAL PERFUSION PET IMAGING” (SINOTAU PHARMACEUTICAL GROUP, priority 2022, published 2026).

Conditions: animals

cardiac uptake (15 minutes post-injection): high | liver uptake (15 minutes post-injection): low | heart-to-liver ratio (maintained after 60 minutes): favorable
SMILES: CC(C)(C)n1ncc(OCc2cccc(Cn3cc(COCCOCC[18F])nn3)c2)c(Cl)c1=O [Compound I, 2-tert-butyl-4-chloro-5-((3-((4-((2-(2-fluoro[^18F]ethoxy)ethoxy)methyl)-1H-1,2,3-triazol-1-yl)methyl)benzyl)oxy)pyridazin-3(2H)-one]
